Measurements reported in patent US12084434B2 (Scorpion Therapeutics, Inc., priority 2021, dated 2024).
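Note: assay medium was RPMI with 10% FBS and 0.2 units/ml bovine insulin, without phenol red.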

The compounds below were run on T47D pAKT (S473), PI3Kα H1047R mutation present (assay: HTRF pAKT-T47D). Settings: Homo sapiens, T47D, 1 h, read-out: T47D pAKT IC50 (nM), T47D.1 cells, pAKT (S473) HTRF, 1 hour.
Experimental: Homogenous Time-Resolved Fluorescence (HTRF)—pAKT-T47D
Compounds were assayed using homogeneous time-resolved fluorescence (HTRF).
Gibco RPMI 1640 Medium, no phenol red; Gibco RPMI 1640 Medium; Gibco Trypsin-EDTA (0.5%), no phenol red; Gibco DPBS; Trypan blue solution 0.4% (Corning); Avantor Seradigm Premium Grade Fetal Bovine Serum (FBS); Greiner 784080-384 well TC treated white plates; pAKT (Ser473) HTRF; Gibco Insulin, human recombinant, zinc solution; Gibco Recovery Cell Culture Freezing Medium; Countess II FL Automated Cell Counter (ThermoFisher); Countess II Slides (ThermoFisher); Microscope; and PHERAstar FSX Microplate Reader (BMG LABTECH, Inc.).
The scinamic cell line ID was T47D.1, the HTRF detection was pAKT (S473), a PI3Kα H1047R mutation was present, the seeding density was 5000, the timepoint was 1 hour, and the medium used was RPMI+10% FBS (no phenol red)+0.2 units/ml bovine insulin.
• The cell density was not permitted to reach 100% confluence. The cells were split 1:5 when they reached ˜80% confluence. • Cells were split twice a week (Mon and Fri). • Cells over passage 18 were not used (˜2 months of maintenance). • Antibiotics were not used for tissue culture maintenance or assays. […] Protocol Day1
The procedure was as follows: • 1. Prepared ARP: • a. Stamped 12.5 nL from 10 μmM source plate to destination plate using Echo. Sealed plate immediately and froze at −20° C. if it was not used on the same day. • b. If a frozen ARP was used, the plate was thawed and spun at 1000 rpm×1 min. • 2. Preparation of cells (adherent): • a. Aspirated media from cells. Washed cells with sterile 1XPBS. Aspirated PBS and added appropriate amount of Trypsin. • b. Once cells were fully trypsinized, added appropriate media to resuspend cells. Transferred cells to a 15 mL or 50 mL conical tube. • c. Counted cells on the Countess II Cell Counter. • 3. Plating of cells: • a. Prepared cells at appropriate plating density. Dispensed 12 μL of diluted cells per well of a Greiner 784080-384 well TC treated white plate using a Multidrop Combi to columns 1-23. Added 12 uL of appropriate phenol free media only to column 24. • b. Placed plates in 37° C. tissue culture incubator for appropriate treatment time (refer to “Assay” table). • 4. Prepared HTRF Lysis Buffer • a. Calculate the amount of HTRF lysis buffer master mix needed to perform the desired experiments plus any extra dead volume required for dispensing (4 μL required per well). […] Add 4 uL Lysis buffer master mix to all wells with sample or DMSO. Centrifuge the plates for 1 minute at 1000 rpm. • c. Incubate at room temperature for 30 minutes. • 5. Prepared HTRF Antibody • a.
`Cc1c([C@@H](NC(=O)Nc2ccc3c(c2)C(=O)N(C)C3)C(C)C)oc2ccc(F)cc12` [Compound 103] gave an IC50 of 1000 to 5000 nM. `Cc1c([C@@H](NC(=O)Nc2cnc(NCC(N)=O)nc2)C(C)C)oc2ccc(F)cc12` [Compound 134, (S)-2-((5-(3-(1-(5-fluoro-3-methylbenzofuran-2-yl)-2-methylpropyl)ureido)pyrimidin-2-yl)amino)acetamide] showed an IC50 of under 1000 nM. Work on `CCC1(O)CN(c2ncc(NC(=O)N[C@H](c3oc4ccc(F)cc4c3C)C(C)C)cn2)C1` [Compound 144] yielded an IC50 of under 1000 nM. `Cc1c([C@@H](NC(=O)Nc2ccc3c(c2)C(=O)OC3)C(C)C)oc2ccc(F)cc12` [Compound 102, 3-[(1S)-1-(5-fluoro-3-methyl-1-benzofuran-2-yl)-2-methylpropyl]-1-(3-oxo-1H-2-benzofuran-5-yl)urea] showed an IC50 of 1000 to 5000 nM. Work on `Cc1c([C@@H](NC(=O)Nc2cnc(N3CC(C)(O)C3)nc2)C(F)(F)F)oc2ccc(F)cc12` [Compound 98, (R)-1-(2-(3-hydroxy-3-methylazetidin-1-yl)pyrimidin-5-yl)-3-(2,2,2-trifluoro-1-(5-fluoro-3-methylbenzofuran-2-yl)ethyl)urea] yielded an IC50 of under 1000 nM. For `Cc1c(C(NC(=O)Nc2cnc(N3CC(S(C)(=O)=O)C3)nc2)C(F)(F)F)oc2c(F)cc(F)cc12` (racemic) [Compound 185, 1-(1-(5,7-difluoro-3-methylbenzofuran-2-yl)-2,2,2-trifluoroethyl)-3-(2-(3-(methylsulfonyl)azetidin-1-yl)pyrimidin-5-yl)urea], the IC50 was 1000 to 5000 nM. `Cc1c(C(NC(=O)Nc2cnc(N3CC(F)C3)nc2)C(F)(F)F)oc2c(F)cc(F)cc12` (single isomer, unassigned) [Compound 225, 1-(1-(5,7-difluoro-3-methylbenzofuran-2-yl)-2,2,2-trifluoroethyl)-3-(2-(3-fluoroazetidin-1-yl)pyrimidin-5-yl)urea] showed an IC50 of 1000 to 5000 nM. In the case of `Cc1c([C@@H](NC(=O)Nc2cnc(N3CC[C@@H](O)C3)nc2)C(F)(F)F)oc2c(F)cc(F)cc12` [Compound 208], the IC50 is reported as under 1000 nM. With `Cc1c([C@@H](NC(=O)Nc2cnc(N3CC4(COC4)C3)nc2)C(F)(F)F)oc2ccc(F)cc12` [Compound 168, (R)-1-(2-(2-oxa-6-azaspiro[3.3]heptan-6-yl)pyrimidin-5-yl)-3-(2,2,2-trifluoro-1-(5-fluoro-3-methylbenzofuran-2-yl)ethyl)urea] the IC50 was under 1000 nM. In the case of `Cc1c([C@@H](NC(=O)Nc2cnc3nccn3c2)C(C)C)oc2ccc(F)cc12` [Compound 160, (S)-1-(1-(5-fluoro-3-methylbenzofuran-2-yl)-2-methylpropyl)-3-(imidazo[1,2-a]pyrimidin-6-yl)urea], the IC50 is reported as under 1000 nM. In the case of `Cc1c([C@@H](NC(=O)Nc2ncc(N)cn2)C(C)(C)C)oc2ccc(F)cc12` [Compound 86, (S)-1-(5-aminopyrimidin-2-yl)-3-(1-(5-fluoro-3-methylbenzofuran-2-yl)-2,2-dimethylpropyl)urea], the IC50 is reported as under 1000 nM. For `Cc1c([C@@H](NC(=O)Nc2ccc3nc[nH]c(=O)c3c2)C(C)C)oc2ccc(F)cc12` [Compound 124, (S)-1-(1-(5-fluoro-3-methylbenzofuran-2-yl)-2-methylpropyl)-3-(4-oxo-3,4-dihydroquinazolin-6-yl)urea], the IC50 was 1000 to 5000 nM. `Cc1c([C@@H](NC(=O)Nc2cnc(NC[C@@H](C)O)nc2)C(C)C)oc2ccc(F)cc12` [Compound 143] gave an IC50 of under 1000 nM. `Cc1c([C@@H](NC(=O)Nc2csc(C(N)=O)c2)C(C)C)oc2ccc(F)cc12` [Compound 123, (S)-4-(3-(1-(5-fluoro-3-methylbenzofuran-2-yl)-2-methylpropyl)ureido)thiophene-2-carboxamide] gave an IC50 of 1000 to 5000 nM. `Cc1c(C(NC(=O)Nc2cnc(N)nc2)C(F)(F)F)oc2c(Br)cc(F)cc12` (single isomer, unassigned) [Compound 215, 1-(2-aminopyrimidin-5-yl)-3-[1-(7-bromo-5-fluoro-3-methyl-1-benzofuran-2-yl)-2,2,2-trifluoroethyl]urea] showed an IC50 of 1000 to 5000 nM. `CC[C@H](NC(=O)Nc1cnc(N)nc1)c1oc2ccc(F)cc2c1C` (single isomer, unassigned) [Compound 100] gave an IC50 of under 1000 nM. With `Cc1c([C@H](NC(=O)Nc2cnc(N3CC[C@H](O)C3)nc2)C(F)(F)F)oc2c(F)cc(F)cc12` [Compound 210] the IC50 was over 5000 nM. `Cc1c([C@@H](NC(=O)Nc2cnc(NC3COC3)nc2)C(C)C)oc2ccc(F)cc12` [Compound 136] was tested, and the IC50 was under 1000 nM. For `Cc1c([C@H](NC(=O)Nc2cnc(N3CC(C(C)(C)O)C3)nc2)C(F)(F)F)oc2c(F)cc(F)cc12` [Compound 206], the IC50 was over 5000 nM. In the case of `Cc1c([C@@H](NC(=O)Nc2cnc(N3CC(C)(O)C3)nc2)C(C)C)oc2ccc(F)cc12` [Compound 96, (S)-1-(1-(5-fluoro-3-methylbenzofuran-2-yl)-2-methylpropyl)-3-(2-(3-hydroxy-3-methylazetidin-1-yl)pyrimidin-5-yl)urea], the IC50 is reported as under 1000 nM. `Cc1c([C@@H](NC(=O)Nc2cnc(NCCCO)nc2)C(C)C)oc2ccc(F)cc12` [Compound 137] gave an IC50 of under 1000 nM. `Cc1c([C@@H](NC(=O)Nc2cnc(N3CC(OC(F)F)C3)nc2)C(C)C)oc2ccc(F)cc12` [Compound 167, 1-{2-[3-(difluoromethoxy)azetidin-1-yl]pyrimidin-5-yl}-3-[(1S)-1-(5-fluoro-3-methyl-1-benzofuran-2-yl)-2-methylpropyl]urea] gave an IC50 of under 1000 nM. `Cc1c([C@@H](NC(=O)Nc2cnc(N3CCNCC3)nc2)C(C)C)oc2ccc(F)cc12` [Compound 106, (S)-1-(1-(5-fluoro-3-methylbenzofuran-2-yl)-2-methylpropyl)-3-(2-(piperazin-1-yl)pyrimidin-5-yl)urea] showed an IC50 of 1000 to 5000 nM. `Cc1c([C@H](NC(=O)Nc2cnc(N3CC(C)(O)C3)nc2)C(F)(F)F)oc2c(F)cc(F)cc12` (single isomer, unassigned) [Compound 93] showed an IC50 of under 1000 nM. `Cc1c([C@@H](NC(=O)Nc2cnc(OCCO)nc2)C(C)C)oc2ccc(F)cc12` [Compound 151, (S)-1-(1-(5-fluoro-3-methylbenzofuran-2-yl)-2-methylpropyl)-3-(2-(2-hydroxyethoxy)pyrimidin-5-yl)urea] gave an IC50 of under 1000 nM.

Same assay, conditions: read-out: T47D pAKT IC50; T47D.1 cells, pAKT (S473) HTRF, 1 hour
With `C[C@@H]1[C@@H](O)CN1c1ncc(NC(=O)NC(c2cc3cc(F)cc(F)c3o2)C(F)(F)F)cn1` (stereo partly drawn) [Compound 173, 3-[1-(5,7-difluoro-1-benzofuran-2-yl)-2,2,2-trifluoroethyl]-1-{2-[(2R,3S)-3-hydroxy-2-methylazetidin-1-yl]pyrimidin-5-yl}urea] the IC50 was over 5000 nM. `Cc1c(C(NC(=O)Nc2cnc(N3C[C@@H](O)[C@@H]3C)nc2)C(F)(F)F)oc2c(F)cc(F)cc12` (some centres unmarked) [Compound 175] was tested, and the IC50 was under 1000 nM. In the case of `Cc1c(C(NC(=O)Nc2cnc(N3CC(O)C3)nc2)C(F)(F)F)oc2ccc(Cl)cc12` (racemic) [Compound 154, 3-[1-(5-chloro-3-methyl-1-benzofuran-2-yl)-2,2,2-trifluoroethyl]-1-[2-(3-hydroxyazetidin-1-yl)pyrimidin-5-yl]urea], the IC50 is reported as under 1000 nM. Compound `Cc1c(C(NC(=O)Nc2cnc(N[C@H](C)CO)nc2)C(F)(F)F)oc2c(F)cc(F)cc12` (single isomer, unassigned) [Compound 188] has an IC50 of under 1000 nM. In the case of `Cc1c(C(NC(=O)Nc2ccc(N3CC(O)C3)nc2)C(F)(F)F)oc2c(F)cc(F)cc12` (racemic) [Compound 180, 3-[1-(5,7-difluoro-3-methyl-1-benzofuran-2-yl)-2,2,2-trifluoroethyl]-1-[6-(3-hydroxyazetidin-1-yl)pyridin-3-yl]urea], the IC50 is reported as under 1000 nM. Work on `Cc1c(C(NC(=O)Nc2cnc(N3CC4(COC4)C3)nc2)C(F)(F)F)oc2c(F)cc(F)cc12` (racemic) [Compound 172, 1-(2-(2-oxa-6-azaspiro[3.3]heptan-6-yl)pyrimidin-5-yl)-3-(1-(5,7-difluoro-3-methylbenzofuran-2-yl)-2,2,2-trifluoroethyl)urea] yielded an IC50 of under 1000 nM. For `Cc1c(C(NC(=O)Nc2cnc(N3CC(O)C3)nc2)C(F)(F)F)oc2c(F)cc(Cl)cc12` (racemic) [Compound 157, 3-[1-(5-chloro-7-fluoro-3-methyl-1-benzofuran-2-yl)-2,2,2-trifluoroethyl]-1-[2-(3-hydroxyazetidin-1-yl)pyrimidin-5-yl]urea], the IC50 was under 1000 nM. `C[C@@H]1[C@@H](O)CN1c1ncc(NC(=O)NC(c2cc3cc(F)cc(F)c3o2)C(F)(F)F)cn1` (stereo partly drawn) [Compound 174, 3-[1-(5,7-difluoro-1-benzofuran-2-yl)-2,2,2-trifluoroethyl]-1-{2-[(2R,3S)-3-hydroxy-2-methylazetidin-1-yl]pyrimidin-5-yl}urea] was tested, and the IC50 was under 1000 nM. Work on `Cc1c(C(NC(=O)Nc2cnc(N3CC(O)C3)nc2)C(F)(F)F)oc2c(Cl)cc(F)cc12` (single isomer, unassigned) [Compound 199, 3-[1-(7-chloro-5-fluoro-3-methyl-1-benzofuran-2-yl)-2,2,2-trifluoroethyl]-1-[2-(3-hydroxyazetidin-1-yl)pyrimidin-5-yl] urea] yielded an IC50 of over 5000 nM. With `Cc1c(C(NC(=O)Nc2cnc(N3CCNC(=O)C3)nc2)C(F)(F)F)oc2c(F)cc(F)cc12` (single isomer, unassigned) [Compound 189, 1-(1-(5,7-difluoro-3-methylbenzofuran-2-yl)-2,2,2-trifluoroethyl)-3-(2-(3-oxopiperazin-1-yl)pyrimidin-5-yl)urea] the IC50 was under 1000 nM. `Cc1c(C(NC(=O)Nc2cnc(N)nc2)C(F)(F)F)oc2c(C#N)cc(F)cc12` (single isomer, unassigned) [Compound 220, 1-(2-aminopyrimidin-5-yl)-3-[1-(7-cyano-5-fluoro-3-methyl-1-benzofuran-2-yl)-2,2,2-trifluoroethyl]urea] was tested, and the IC50 was under 1000 nM. Work on `Cc1c(C(NC(=O)Nc2cnc(N)nc2)C(F)(F)F)oc2c(Br)cc(F)cc12` (single isomer, unassigned) [Compound 216, 1-(2-aminopyrimidin-5-yl)-3-[1-(7-bromo-5-fluoro-3-methyl-1-benzofuran-2-yl)-2,2,2-trifluoroethyl]urea] yielded an IC50 of under 1000 nM. `CCc1c(C(NC(=O)Nc2cnc(N)nc2)C(F)(F)F)oc2ccc(F)cc12` (racemic) [Compound 132, 1-(2-aminopyrimidin-5-yl)-3-[1-(3-ethyl-5-fluoro-1-benzofuran-2-yl)-2,2,2-trifluoroethyl]urea] was tested, and the IC50 was under 1000 nM.
